Legend:
human GR = target: T1, human GR (Homo sapiens, UniProt P04150); assay: GR agonist potency, MMTV-luciferase reporter in SW1353 cells; type: cell-based; settings: human chondrosarcoma cell-line SW1353 stably transfected with MMTV-luciferase reporter; approx. 18 hours; data as percentage of 1 μM dexamethasone positive control
T1 construct: SW1353 naturally expresses human GR; endogenous in cells; host or cells: human chondrosarcoma cell-line SW1353 stably transfected with an MMTV-luciferase reporter construct
T1 sequence (P04150 1-777): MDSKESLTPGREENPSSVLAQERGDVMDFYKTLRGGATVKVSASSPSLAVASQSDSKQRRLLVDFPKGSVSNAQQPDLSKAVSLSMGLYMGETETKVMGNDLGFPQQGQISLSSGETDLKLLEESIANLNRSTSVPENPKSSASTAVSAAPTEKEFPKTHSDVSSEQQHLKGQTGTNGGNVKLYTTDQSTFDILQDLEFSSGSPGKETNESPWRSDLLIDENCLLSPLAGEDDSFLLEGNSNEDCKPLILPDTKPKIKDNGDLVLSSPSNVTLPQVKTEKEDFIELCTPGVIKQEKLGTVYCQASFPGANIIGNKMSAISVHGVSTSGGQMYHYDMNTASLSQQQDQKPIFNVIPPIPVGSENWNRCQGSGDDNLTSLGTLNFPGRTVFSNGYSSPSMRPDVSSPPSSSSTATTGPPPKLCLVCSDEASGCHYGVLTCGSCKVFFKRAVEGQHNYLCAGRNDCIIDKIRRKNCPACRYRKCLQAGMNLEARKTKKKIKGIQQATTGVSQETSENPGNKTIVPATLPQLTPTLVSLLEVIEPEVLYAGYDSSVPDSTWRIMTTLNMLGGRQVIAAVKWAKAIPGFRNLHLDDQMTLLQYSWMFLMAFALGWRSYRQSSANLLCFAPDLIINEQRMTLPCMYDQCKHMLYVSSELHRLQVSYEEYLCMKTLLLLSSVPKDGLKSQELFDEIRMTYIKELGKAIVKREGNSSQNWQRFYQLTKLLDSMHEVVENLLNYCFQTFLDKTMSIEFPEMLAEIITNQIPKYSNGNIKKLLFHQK
Method: Glucococorticoid receptor (GR) agonist potency was determined in the human chondrosarcoma cell-line SW1353 stably transfected with an MMTV-luciferase reporter construct. SW1353 naturally expresses human GR, which on binding a glucocorticoid agonist activates glucocorticoid response elements within the MMTV promoter, driving expression of the luciferase gene.
Frozen SW1353 cells were revived in DMEM medium, without sodium pyruvate or phenol red, supplemented with 2 mM L-glutamine, 1 μg/ml insulin, 2 mg/ml lactalbumin hydrosylate and 0.5 μg/ml ascorbate. Cells were seeded at approximately 5000 cells/well (35 μl/well) in 384-well clear bottom, tissue culture treated plates. Steroid dose-response dilutions were prepared in steroid diluent (PBS containing 2.5% (v/v) DMSO and 0.05% (v/v) pluronic detergent) and 5 μl added to each well. The volume was made up to 50 μl per well with steroid diluent. Positive control wells contained 1 μM dexamethasone. Plates were incubated for approximately 18 hours at 37° C. in an air/5% CO2 atmosphere in a humidified incubator before Britelite reagent (10 μl; Perkin-Elmer) was added to each well. Each plate was incubated for 2 minutes in the dark and luminescence quantified using a LJL Biosystems Analyst luminometer. Data for test compounds (expressed as percentage of the dexamethasone positive control) were used to construct dose response curves from which EC50 values were estimated.

[1] = Inhibition of TNF-α release from LPS stimulated isolated human PBMC; type: cell-based; settings: Homo sapiens, PBMC, read-out: IC50 (nM) for inhibition of TNF-α release
Method: The anti-inflammatory activity of the compounds against human leukocytes in vitro was also evaluated by determining inhibition of tumour necrosis factor-α (TNF-α) release from lipopolysaccharide (LPS) stimulated isolated human peripheral mononuclear cells (PBMC).
Peripheral venous blood from healthy, non-medicated donors was collected using ethylenediaminetetraacetic acid (EDTA) as the anti-coagulant. For PBMC preparation, samples of blood were diluted 1:1 with sterile phosphate buffered saline and then separated using ACCUSPIN™ System-Histopaque®-1077 tubes (Sigma-Aldrich, St Louis, Mo.), centrifuged at 400 g for 35 minutes. Buffy coat cells were removed into PBS, centrifuged at 200 g for 10 minutes and re-suspended in PBMC assay buffer (Hanks Balanced Salt Solution, 0.28% [w/v] 4-[2-hydroxyethyl]-1-piperazineethanesulfonic acid [HEPES], 0.01% [w/v] low-endotoxin bovine serum albumin [BSA]. A differential white cell count was performed and PBMC's diluted to 1×10^6 lymphocytes per ml in PBMC assay buffer.
Test compounds were dissolved in DMSO and diluted in PBMC assay buffer (final DMSO concentration 1%) to cover an appropriate concentration range, e.g 0.001 nM to 10000 nM. Samples of test compound solution or vehicle (20 μl) were added into 96-well tissue culture treated plates (Corning) and PBMC (160 μl) added to each well. The assay mixtures were incubated at 37° C. for 1 h in a humidified incubator containing an atmosphere of air supplemented with 5% CO2 before adding LPS (20 μl of 100 ng/ml for PBMC). Plates were returned to the incubator for a further 18 hours, and then centrifuged before recovery of samples of supernatant. TNF-α in the samples was determined using an enzyme-linked immunosorbent assay (ELISA) (Invitrogen kit no CHC-1754; Invitrogen Carlsbad, Calif.) and following the manufacturers instructions. Dose response curves were constructed from which IC50 values were calculated.

| SMILES | EC50 (human GR) [nM] | IC50 [1] [nM] |
| --- | --- | --- |
| C[C@]12C=CC(=O)C=C1CC[C@H]1[C@@H]3CC[C@](OC(=O)c4ccc(Sc5ccccc5)cc4)(C(=O)OCC#N)[C@@]3(C)C[C@H](O)[C@@]12F [Example 8, cyanomethyl (11beta,17alpha)-9-fluoro-11-hydroxy-3-oxo-17-{[4-(phenylthio)benzoyl]oxy}androsta-1,4-diene-17-carboxylate] | 25 | 0.292 |
| C[C@]12C=CC(=O)C=C1CC[C@H]1[C@@H]3CC[C@](OC(=O)c4ccc(Oc5ccc(O)c(Cl)c5)cc4)(C(=O)SCC#N)[C@@]3(C)C[C@H](O)[C@@]12F [Example 12, (11beta,17alpha)-17-{[(cyanomethyl)thio]-carbonyl}-9-fluoro-11-hydroxy-3-oxoandrosta-1,4-dien-17-yl 4-(3-chloro-4-hydroxyphenoxy)benzoate] | 117 | 0.345 |
| C[C@]12C=CC(=O)C=C1CC[C@H]1[C@@H]3CC[C@](OC(=O)c4ccc(Oc5ccc(O)c(Cl)c5)cc4)(C(=O)SCF)[C@@]3(C)C[C@H](O)[C@@]12F [Example 26, (11beta, 17alpha)-9-fluoro-17-{[(fluoromethyl)thio]carbonyl}-11-hydroxy-3-oxoandrosta-1,4-dien-17-y1 4-(3-chloro-4-hydroxyphenoxy)-benzoate] | 42.6 | 0.177 |
| C[C@]12C=CC(=O)C=C1CC[C@H]1[C@@H]3CC[C@](OC(=O)c4ccc(Oc5ccccc5)cc4)(C(=O)SCC#N)[C@@]3(C)C[C@H](O)[C@@]12F [Example 29, (11beta,17alpha)-17-{[(cyanomethyl)-thio]carbonyl}-9-fluoro-11-hydroxy-3-oxoandrosta-1,4-dien-17-yl 4-phenoxybenzoate] | 78.4 | 0.156 |
| CSc1ccc(Sc2ccc(C(=O)O[C@]3(C(=O)OCF)[C@H](C)C[C@H]4[C@@H]5C[C@H](F)C6=CC(=O)C=C[C@]6(C)[C@@]5(F)[C@@H](O)C[C@@]43C)cc2)cc1 [Example 50, Fluoromethyl (6alpha,11beta,16alpha, 17alpha)-6,9-difluoro-11-hydroxy-16-methyl-17-[(4-{[4-(methylthio)phenyl]thio}benzoyl)oxy]-3-oxoandrosta-1,4-diene-17-carboxylate] | 11.5 | 0.052 |
| C[C@@H]1C[C@H]2[C@@H]3C[C@H](F)C4=CC(=O)C=C[C@]4(C)[C@@]3(F)[C@@H](O)C[C@]2(C)[C@@]1(OC(=O)c1ccc(Oc2ccc(O)c(Cl)c2)cc1)C(=O)OCF [Example 44, Fluoromethyl (6alpha,11beta,16alpha,17alpha)-17-{[4-(3-chloro-4-hydroxyphenoxy)benzoyl]oxy}-6,9-difluoro-11-hydroxy-16-methyl-3-oxoandrosta-1,4-diene-17-carboxylate] | 6.7 | 0.029 |
| C[C@]12C=CC(=O)C=C1[C@@H](F)C[C@H]1[C@@H]3CC[C@](OC(=O)c4ccc(OCc5ccccc5)cc4)(C(=O)CO)[C@@]3(C)C[C@H](O)[C@@]12F [Example 31, (6alpha,11beta)-6,9-difluoro-11,21-dihydroxy-3,20-dioxopregna-1,4-dien-17-yl 4-(benzyloxy)benzoate] | 102 | 0.152 |
| C[C@]12C=CC(=O)C=C1CC[C@H]1[C@@H]3CC[C@](OC(=O)c4ccc(Sc5ccc(Cl)c(O)c5)cc4)(C(=O)OCC#N)[C@@]3(C)C[C@H](O)[C@@]12F [Example 39, cyanomethyl(11beta,17alpha)-17-({4-[(4-chloro-3-hydroxyphenyl)thio]benzoyl}oxy)-9-fluoro-11-hydroxy-3-oxoandrosta-1,4-diene-17-carboxylate] | 44.1 | 0.615 |
| C[C@@H]1C[C@H]2[C@@H]3CCC4=CC(=O)C=C[C@]4(C)[C@@]3(F)[C@@H](O)C[C@]2(C)[C@@]1(OC(=O)c1ccc(Oc2ccc(O)c(Cl)c2)cc1)C(=O)SCF [Example 43, (11beta,16alpha,17alpha)-9-fluoro-17-{[(fluoromethyl)thio]carbonyl}-11-hydroxy-16-methyl-3-oxoandrosta-1,4-dien-17-yl 4-(3-chloro-4-hydroxyphenoxy)benzoate] | 26.4 | 0.06 |
